This note sets out measurements from patent US8702684B2, “Therapeutic hybrid implantable devices” (University of Miami, priority 2007, dated 2014).

What all share (format): in vivo, rat
The subject of data set [1] is islet allografts in diabetic Lewis rats. In words: Allogeneic islet graft survival in hybrid devices with local immunosuppression via micro-osmotic pump after weaning of systemic immunosuppression. Conditions: local delivery by micro-osmotic pump 0.25 microL/h, dexamethasone phosphate 20 mg/L, loteprednol etabonate 0.2, 0.5, 10 mg/L, S1P receptor agonist 50 mg/L, controls rejected within 2 weeks of stopping systemic immunosuppression. An excerpt:
Forty days before islet transplantation, the rats were implanted with a hybrid device of the invention with a plunger-containing device in the subcutaneous space as described in Example 3. Allogeneic islets (7,000 IE isolated from Wistar Furth rats) were then deposited into the neovascularized spaces of the hybrid devices, and after the transplantation, the animals' glucose levels were monitored daily as described in Examples 1 and 3. Post-transplantation, all animals received systemic immunosuppression treatment consisting of a single-dose induction treatment with T-cell depleting anti-lymphocyte serum (ALS) given intravenously on day −3. Starting on the day of islet transplantation, systemic maintenance immunosuppression with mycophenolic acid (MPA, 20 mg/kg) was given daily orally for at least three weeks. […] After at least two weeks of treatment, systemic immunosuppression was tapered and discontinued, while the local immunosuppression was maintained. For example, a typical weaning protocol of systemic treatment consisted of 25% reduction of MPA for two consecutive days over an 8-day period. FIG. 25 illustrates an experimental protocol of transient systemic immunosuppression combined with local extended immunotherapy.
Starting on the day of islet transplantation, animals also received local immunosuppression delivered using a micro-osmotic pump such as the Alzet® 100 microL volume, 2-week continuous infusion, 0.25 microL/h delivery rate model 1002 pump (Durect Corp., Cupertino, Calif.). Both the device and the pump were implanted in the dorsal region of the rodents, and they were connected via a PE tubing. Animals were divided into controls receiving either local saline or no treatment and treatment groups receiving various immunosuppressive agents such as, for example, dexamethasone phosphate (20 mg/L), loteprednol etabonate (0.2, 0.5, and 10 mg/L), or a sphingosine-1-phosphate (S1P) receptor agonist (50 mg/L) from the micro-osmotic pump.

Data set [2] concerns already-engrafted syngeneic islet grafts in rats. In words: Effect of systemic immunosuppression on already-engrafted functional syngeneic islet grafts. Conditions: for animals returning to normoglycemia / recovering function after drug withdrawal: after 40 days treatment.
The test system of data set [3] is syngeneic islet grafts in chemically-diabetic Lewis rats. Briefly: Effect of systemic immunosuppression given from day of syngeneic islet transplantation on engraftment and graft function in hybrid devices. The note with it: for animals achieving normoglycemia at later times after withdrawal of immunosuppression: fraction of animals in group, single-drug treatment; for graft function while under treatment: syngeneic islets 3,000 IEQ, treatment from day of transplantation for 40 days, controls normoglycemic long-term. The procedure: To assess the impact of conventional systemic immunosuppression on islet engraftment and function in prevascularized hybrid devices, we carried out syngeneic islet transplantation in chemically-diabetic Lewis rats that were treated with either rapamycin or tacrolimus (alone or in combination) as described in Example 3, starting from the day of islet transplantation, for 40 days. Control animals received no treatment.

The structures appear in SMILES notation. Entries after “also recorded” stand apart in the source; their conditions may differ.

Turning to `C[C@@H]1C[C@H]2[C@@H]3CCC4=CC(=O)C=C[C@]4(C)[C@@]3(F)[C@@H](O)C[C@]2(C)[C@@]1(O)C(=O)COP(=O)(O)O` [dexamethasone phosphate], the figures for the “allograft survival compared to control animals” value in data set [1] and in data set [1] (listed as dexametasone phosphate) were “clear extension of allograft survival” and “sizable extension of allograft survival”, respectively.
Regarding `CCOC(=O)O[C@]1(C(=O)OCCl)CC[C@H]2[C@@H]3CCC4=CC(=O)C=C[C@]4(C)[C@H]3[C@@H](O)C[C@@]21C` [loteprednol etabonate], in data set [1], the “allograft survival compared to control animals” value was “clear extension of allograft survival; also recorded: sizable extension of allograft survival”.
On to `CO[C@H]1C[C@@H]2CC[C@@H](C)[C@@](O)(O2)C(=O)C(=O)N2CCCC[C@H]2C(=O)O[C@H]([C@H](C)C[C@@H]2CC[C@@H](O)[C@H](OC)C2)CC(=O)[C@H](C)/C=C(\C)[C@@H](O)[C@@H](OC)C(=O)[C@H](C)C[C@H](C)/C=C/C=C/C=C/1C` [rapamycin, sirolimus], for which, in data set [2] (already-engrafted graft), the “animals returning to normoglycemia / recovering function after drug withdrawal” value is “returned to normoglycemia”. Further, the “animals displaying dysfunction while under treatment” value in data set [2] (fraction of animals, 40 days treatment of already-engrafted graft) is recorded as “⅓”. In data set [3], the “animals achieving normoglycemia at later times after withdrawal of immunosuppression” value is reported as “¼” and the “graft function while under treatment” value is “only partial function or primary non-function; also recorded: only partial or primary non-function”.
`C=CC[C@@H]1/C=C(\C)C[C@H](C)C[C@H](OC)[C@H]2O[C@@](O)(C(=O)C(=O)N3CCCC[C@H]3C(=O)O[C@H](/C(C)=C/[C@@H]3CC[C@@H](O)[C@H](OC)C3)[C@H](C)[C@@H](O)CC1=O)[C@H](C)C[C@@H]2OC` [tacrolimus]: the “graft function under systemic immunosuppression administered for 40 days” value in data set [2] (already-engrafted graft, >=40 days post implantation) is on record as “impaired graft function”. Also, the “animals returning to normoglycemia / recovering function after drug withdrawal” value in data set [2] (already-engrafted graft) was “⅓”. Moreover, in data set [3], the “animals achieving normoglycemia at later times after withdrawal of immunosuppression” value is on record as “¼” and the “graft function while under treatment” value is given as “only partial function or primary non-function; also recorded: only partial or primary non-function”.
